Legend:
[1] = test system: DH10B harboring pBLAM-YQRS and pACYsupA38; test: cell toxicity screen of unnatural amino acids in glycerol minimal media; type: cell-based, E. coli; conditions: concentration used as lethal allele at IC50 level
Excerpt: For example, a variety of unnatural amino acids are optionally screened in minimal media for toxicity to cells. Toxicities are typically sorted into five groups: (1) no toxicity, in which no significant change in doubling times occurs; (2) low toxicity, in which doubling times increase by less than about 10%; (3) moderate toxicity, in which doubling times increase by about 10% to about 50%; (4) high toxicity, in which doubling times increase by about 50% to about 100%; and (5) extreme toxicity, in which doubling times increase by more than about 100%. […] The toxicity of the amino acids scoring as highly or extremely toxic is typically measured as a function of their concentration to obtain IC50 values.
A variety of unnatural amino acids and α-hydroxy acids of interest, obtained commercially or by short syntheses from available starting materials (I. Shin, B. Herberich, A. Varvak, T. Magliery, P. Schultz, unpublished results, were screened for cell toxicity). […] Each amino acid wasscreened at 1 mM in glycerol minimal media for toxicity to cells, e.g., to DH10B harboring pBLAM-YQRS and pACYsupA38.
The toxicity of amino acids scoring as highly or extremely toxic is typically measured as a function of their concentration to obtain IC50 values. […]

[2] = test system: glutamine uptake pathway of DH10B; test: complementation of toxic glutamine alleles S27 and S47 (cellular uptake); type: cell-based, E. coli; conditions: 2 mM, complementation of S27 (100 μM) and S47 (30 μM)
Excerpt: To identify possible uptake pathways for toxic amino acids, toxicity assays are optionally repeated at IC50 levels, e.g., in media supplemented with an excess of a structurally similar natural amino acid. For toxic amino acids, the presence of excess natural amino acid typically rescues the ability of the cells to grow in the presence of the toxin, presumably because the natural amino acid effectively outcompetes the toxin for either cellular uptake or for binding to essential enzymes. In these cases, the toxic amino acid is optionally assigned a possible uptake pathway and labeled a “lethal allele” whose complementation is required for cell survival. These lethal alleles are extremely useful for assaying the ability of cells to uptake nontoxic unnatural amino acids. […] A lack of complementation is inconclusive. For example studies and conclusions see the examples provided below.
For toxic amino acids, the presence of excess natural amino acid rescued the ability of the cells to grow in the presence of the toxin, presumably because the natural amino acid effectively outcompeted the toxin for either cellular uptake or for binding to essential enzymes. […]
Using this method, the ability of 22 glutamine and glutamic acid analogs to be taken up by DH10B was evaluated. […]

With `NNC(=O)CCC(N)C(=O)O` (centres unmarked) [S47] the IC50 [1] was 30 µM and the “cellular uptake, possibly via the glutamine uptake pathway” value [2] was “uptaken by cells”.
